Structures are written as SMILES.

In the experiment the target is T1, Allene oxide synthase, chloroplastic (Arabidopsis thaliana, UniProt Q96242).
T1 sequence (Q96242 whole entry): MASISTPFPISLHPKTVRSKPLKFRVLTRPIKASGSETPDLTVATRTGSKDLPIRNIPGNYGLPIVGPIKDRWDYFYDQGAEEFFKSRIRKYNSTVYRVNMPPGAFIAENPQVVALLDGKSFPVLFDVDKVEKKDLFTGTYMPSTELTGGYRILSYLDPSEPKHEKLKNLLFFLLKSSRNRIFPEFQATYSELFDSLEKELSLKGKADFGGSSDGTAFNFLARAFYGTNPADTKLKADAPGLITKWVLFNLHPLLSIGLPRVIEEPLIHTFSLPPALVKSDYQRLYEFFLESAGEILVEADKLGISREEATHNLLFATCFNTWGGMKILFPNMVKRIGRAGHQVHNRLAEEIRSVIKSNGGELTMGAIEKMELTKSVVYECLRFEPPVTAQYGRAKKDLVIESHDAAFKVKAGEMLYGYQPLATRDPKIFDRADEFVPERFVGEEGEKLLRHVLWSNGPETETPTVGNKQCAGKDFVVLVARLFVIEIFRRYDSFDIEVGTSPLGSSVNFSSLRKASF
As to the kind of experiment: Inhibition of recombinant Arabidopsis thaliana allene oxide synthase activity by spectrophotometry.
In general, IC50 refers to the concentration at which inhibition is half-maximal. With `COC(=O)CCCCCCCOC(Cn1cncn1)c1ccc(F)cc1` (stereo unspecified), the IC50 worked out at 14500 nM.
As for `COC(=O)CCCCCCCOC(Cn1cncn1)c1cccc(OC)c1` (stereo unspecified), the figure is 22500 nM; as for `CCCCCCCOC(=O)CCCCCCCOC(Cn1ccnc1)c1ccc(Cl)cc1Cl` (stereo unspecified), 10 nM; as for `COC(=O)CCCCCCCOC(Cn1cncn1)c1ccc(Cl)c(Cl)c1` (stereo unspecified), 930 nM.
As for `COC(=O)CCCCCCCOC(Cn1cncn1)c1ccc(-c2ccccc2)cc1` (stereo unspecified), the figure is 54300 nM; as for `COC(=O)CCCCCCCOC(Cn1ccnc1)c1ccc(Cl)cc1Cl` (stereo unspecified), 850 nM; as for `COC(=O)CCCCCCCOC(Cn1cncn1)c1ccc(OC)cc1` (stereo unspecified), 2600 nM.
As for `COC(=O)CCCCCCCOC(Cn1cncn1)c1ccccc1` (stereo unspecified), the figure is 1600 nM; as for `COC(=O)CCCCCCCOC(Cn1cncn1)c1ccc2ccccc2c1` (stereo unspecified), 750 nM.
`COC(=O)CCCCCCCOC(Cn1cncn1)c1ccc(Cl)cc1Cl` (stereo unspecified): the IC50 turned out to be 840 nM.
For `COC(=O)CCCCCCCOC(Cn1cncn1)c1ccc(Cl)cc1` (stereo unspecified), the IC50 is 1200 nM.

These data come from ChEMBL document CHEMBL3045400, “Synthesis of novel triazole derivatives as potent inhibitor of allene oxide synthase (CYP74A), a key enzyme in jasmonic acid biosynthesis” (J Pestic Sci, 2012).
